In PMC11851430, “Workflow for E3 Ligase Ligand Validation for PROTAC Development” (ACS Chemical Biology, 2025):

Assays:
Test in all cases: TMT-labeled quantitative proteomics
Format in all cases: cell-based
[1] = target: T1, kinase protein levels in MCF-7 cells (Homo sapiens, UniProt A0A024RBG1); conditions: protein NUDT4B; MCF7; 1 µM; set2
T1 construct: endogenous in cells; host or cells: MCF-7

[2] = target: T2, kinase protein levels in MCF-7 cells (Homo sapiens, UniProt A0A0U1RRE5); conditions: protein NBDY; MCF7; 1 µM; set2
T2 construct: endogenous in cells; host or cells: MCF-7
T2 sequence (A0A0U1RRE5 1-68): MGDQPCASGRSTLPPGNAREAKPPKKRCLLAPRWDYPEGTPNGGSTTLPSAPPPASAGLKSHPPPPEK

[3] = target: T3, kinase protein levels in MCF-7 cells (Homo sapiens, UniProt P0DPI2); conditions: protein GATD3; MCF7; 1 µM; set2
T3 construct: endogenous in cells; host or cells: MCF-7
T3 sequence (P0DPI2 42-268): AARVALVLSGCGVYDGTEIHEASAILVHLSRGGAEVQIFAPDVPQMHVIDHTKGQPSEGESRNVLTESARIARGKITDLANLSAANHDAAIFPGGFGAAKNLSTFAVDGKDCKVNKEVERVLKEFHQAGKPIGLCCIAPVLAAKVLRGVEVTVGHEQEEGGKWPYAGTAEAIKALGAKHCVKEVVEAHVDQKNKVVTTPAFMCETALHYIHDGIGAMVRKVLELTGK

T1 sequence (A0A024RBG1 whole entry): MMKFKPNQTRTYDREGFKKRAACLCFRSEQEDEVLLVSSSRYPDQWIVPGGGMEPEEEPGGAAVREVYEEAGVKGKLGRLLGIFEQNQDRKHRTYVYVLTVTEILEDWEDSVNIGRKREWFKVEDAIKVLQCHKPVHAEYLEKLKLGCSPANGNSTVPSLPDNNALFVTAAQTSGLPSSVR

P.Value (compound/DMSO) [1] | log2FC (compound/DMSO) [1] | P.Value (compound/DMSO) [2] | log2FC (compound/DMSO) [2] | P.Value (compound/DMSO) [3] | log2FC (compound/DMSO) [3] | Compound
0.01265 | -0.4511 | 0.05637 | -0.3112 | 0.01692 | -0.3786 | CC(=O)N[C@H](C(=O)N1C[C@H](O)C[C@H]1C(=O)NCc1ccc(-c2scnc2C)cc1OCCOCCOCCOCCNC(=O)c1cc(Nc2cc(C3CC3)[nH]n2)nc(Nc2ccc(CC#N)cc2)n1)C(C)(C)C [5-b]
0.2879 | 0.1111 | 0.09776 | 0.2849 | 0.4778 | 0.0741 | CC(=O)N[C@H](C(=O)N1C[C@H](O)C[C@H]1C(=O)NCc1ccc(-c2scnc2C)cc1OCCOCCOCCOCCOCCC(=O)N1CCN(c2ccc(Nc3ncc(Cl)c(Nc4ccccc4C(N)=O)n3)cc2)CC1)C(C)(C)C [6-e]
